In publication PMC12131314, “Design, synthesis and cytotoxic research of a novel antitumor model based on acrylamide–PABA analogs via β-tubulin inhibition” (RSC Advances, 2025):

Experiments:
Format in all cases: cell-based
[1] = test system: MCF-7 breast cancer cell line; test: MTT cytotoxicity assay, MCF-7 breast cancer cell line; conditions: for IC50: MCF-7 breast carcinoma cells, triplicate
Description: The MTT colorimetric technique was used to evaluate the cytotoxic activity of the newly produced acrylamide–PABA hybrids 4a–j against the MCF-7 breast cancer cell line.
(§1) S4.2.1. Cytotoxic activity evaluation
(§2) To measure the cytotoxic actvity of the synthesized acrylamide-PABA derivatives 4a-j in breast MCF-7 (ATCC Cat. No. HTB-22), liver HepG2 (ATCC Cat No. HB-8065), and normal breast MCF-10A (ATCC Cat. No. CRL 10317) cell lines, cell viability assay was assessed using MTT assay method. Cells at density of 1 x 104 were seeded in a 96-well plate at 37 °C for 24 h under 5% CO2. After incubation, the cells were treated with different concentrations of the test acrylamide-PABA hybrids 4a-j and incubated for 24 h, then 20 µl of MTT solution at 5 mg/mL was applied and incubated for 4 h at 37 °C. Dimethyl sulphoxide (DMSO) in volume of 100 µl was added to each well to dissolve the purple formazan that had formed. The color intensity of the formazan product, which represents the growth condition of the cells, is quantified by using an ELISA plate reader (EXL 800, USA) at 570 nm absorbance. The experimental conditions were carried out with at least three replicates, and the experiments were repeated at least three times. […]

[2] = test system: MCF-10A (normal breast) cell line; test: MTT cytotoxicity assay, MCF-10A normal breast cell line; conditions: Homo sapiens, MCF-10A normal breast cells, triplicate
Description: as §1, §2

[3] = test system: HepG2 hepatocellular carcinoma cell line; test: MTT cytotoxicity assay, HepG2 hepatocellular carcinoma cell line; conditions: Homo sapiens, HepG2 cells, triplicate
Description: as §1, §2

β-tubulin = β-tubulin polymerization inhibition (β-tubulin assay kit) in MCF-7 cells
Description: as §1
To measure the cytotoxic actvity of the synthesized acrylamide-PABA derivatives 4a-j in breast MCF-7 (ATCC Cat. No. HTB-22), liver HepG2 (ATCC Cat No. HB-8065), and normal breast MCF-10A (ATCC Cat. No. CRL 10317) cell lines, cell viability assay was assessed using MTT assay method. Cells at density of 1 x 104 were seeded in a 96-well plate at 37 °C for 24 h under 5% CO2. After incubation, the cells were treated with different concentrations of the test acrylamide-PABA hybrids 4a-j and incubated for 24 h, then 20 µl of MTT solution at 5 mg/mL was applied and incubated for 4 h at 37 °C. Dimethyl sulphoxide (DMSO) in volume of 100 µl was added to each well to dissolve the purple formazan that had formed. The color intensity of the formazan product, which represents the growth condition of the cells, is quantified by using an ELISA plate reader (EXL 800, USA) at 570 nm absorbance. The experimental conditions were carried out with at least three replicates, and the experiments were repeated at least three times.
S4.2.2. β-tubulin inhibition Assay […]
according to manufacturer’s instructions

MCF-7 cells [4] = test: Annexin V-FITC/PI apoptosis assay by flow cytometry; conditions: 4j at the IC50, 48 h
Description: Understanding the biological mechanism of action of chemotherapeutic agents is an important aspect of the pharmaceutical development process.[28] […] Following cellular staining with Annexin V –FITC/propidium iodide (PI), FACS analysis was conducted. To differentiate between early and late apoptosis, both stains were used. (PI^−/Annexin V-FITC^+) represented early apoptotic cells, (PI^+/Annexin V-FITC^+) indicated late apoptotic cells, and (PI^+/Annexin V-FITC^−) represented necrotic cells. However, healthy cells were not stained (PI^−/Annexin V-FITC^−). […] This was clarified by compound 4j's modest degree of induced necrosis in contrast to its markedly elevated levels of induced early and late apoptosis. Acrylamide–PABA analog 4j induced both early apoptosis (22.07%) and late apoptosis (7.56%) in comparison with modest level of necrosis (3.19%).
S4.2.3. Apoptosis assay for compound 4j
Apoptosis in MCF-7 cells was investigated using fluorescent Annexin V-FITC/ PI detection kit (BioVision Annexin V-FITC Apoptosis Detection Kit, Catalog #: K101) by flow cytometry assay. MCF-7 cells at a density of 2 × 10^5 per well were treated with compound 4j at the IC50 (µM) for 48 h, then the cells were harvested and stained with Annexin V-FITC/ PI dye for 15 min in the dark at 37 °C. The samples were immediately analyzed using FACS Calibur flow cytometer (Becton and Dickinson, […]
(§3) S4.2.4. qRT-PCR measurements of p53, Bax, Bcl2 and caspase 9 for compound […]
Real-time PCR for p53, BAX, Bcl-2 and caspase 9 genes expression was done using commercial Qiagen RNA extraction/ BioRad SYBER green PCR master mix according manufacturer's instructions. Briefly, 2 µl of cDNA template, 10 pMol of each forward and reverse primer, 10 µl of 2X Master Mix and to 20 µl total reaction mixture volume by nuclease free water and then was introduced to thermal cycler […]
(1 picture or pasted object on this page, not shown here)

MCF-7 cells [5] = test: Cell cycle analysis (PI, flow cytometry); conditions: 4j at the IC50, 48 h
Description: In cancer mass development, the disruption of the cell cycle can be an important event. Cellular cycle progression has two primary checkpoints: G1/S before DNA replication and G2/M before mitosis.[33] A p53-responsive gene such as p21^wafi regulates the G1/S checkpoint and mediates cell cycle arrest.[34] Since the cytotoxic activity of the synthesized analogs against MCF-7 cells was induced by the enhanced apoptotic levels, we examined whether these analogs further induced cell cycle arrest. […] As can been seen in Fig. 5, the cellular distribution at each stage is depicted in the histogram of the cellular cycle caused by the acrylamide–PABA hybrid 4j. […]
instrument (Thermo Scientific, USA). The cycling parameters for the PCR amplification were achieved by initial denaturation at 95 °C for 3 minutes followed by 40 cycles of 94 °C for 15 seconds and annealing/extension step at 60 °C for 1 min.
Relative quantification of target genes was run on Rotor-Gene 6000 Series Software […]
Table 1: The primer sequences for Real Time PCR assay
S4.2.5. Cell cycle analysis of compound 4j
Cell cycle analysis in MCF-7 cells was investigated using fluorescent Annexin V-FITC/ PI detection kit (BioVision EZCellTM Cell Cycle Analysis Kit Catalog #K920) by flow cytometry assay. MCF-7 cells at a density of 2 × 10^5 per well were harvested and washed twice in PBS. After that, the cells were incubated at 37 °C and 5% CO2.
The medium was incubated with the tested compound 4j at the IC50 (µM) for 48 h, washed twice in PBS, fixed with 70% ethanol, rinsed again with PBS. Afterward, medium was stained with DNA fluorochrome PI for 15 min at 37 °C. The samples were immediately analyzed using Facs Calibur flow cytometer (Becton and Dickinson, Heidelberg, Germany).
S4.3. Molecular modeling study
Molecular docking simulations were conducted using AutoDock Vina to investigate ligand interactions with the tubulin complex. The three-dimensional (3D) structure of the tubulin heterodimer was obtained from the Protein Data Bank (PDB ID: 1SA0), with chain B of the colchicine-bound complex selected as the docking target. […]

p53 = test: qRT-PCR expression level of p53; conditions: MCF-7 cells
Description: (§4) The apoptotic markers related to apoptosis were crucial in preventing cancer.[30] p53 and other apoptotic regulators function as transcription factors that can activate several target genes in response to oncogenic stress, causing cell cycle arrest, apoptosis activation, and degeneration, while also promoting DNA repairs.[31] As a result, the apoptosis-related markers work together in order to ensure that cells with mutations that promote cancer (including broken genomes) are either repaired or permanently eliminated.[32] To further comprehend the molecular process involved in the apoptotic efficacy of the acrylamide–PABA analogs, the expression levels of p53, Bax, Bcl-2 and caspase 9 were evaluated. […] This was carried out in contrast to a negative control group. […] This was accompanied by a notable drop in the level of Bcl-2 (0.29-fold). […]
as §3
(§5) Real-time PCR for p53, BAX, Bcl-2 and caspase 9 genes expression was done using commercial Qiagen RNA extraction/ BioRad SYBER green PCR master mix according manufacturer's instructions. […]
(§6) Relative quantification of target genes was run on Rotor-Gene 6000 Series Software

caspase 9 = test: qRT-PCR expression level of caspase 9; conditions: MCF-7 cells
Description: as §4, §3, §5, §6

Bcl-2 = test: qRT-PCR expression level of Bcl-2; conditions: MCF-7 cells
Description: as §4, §3, §5, §6

Bax = test: qRT-PCR expression level of Bax; conditions: MCF-7 cells
Description: as §4, §3, §5, §6

`COc1cc(C(=O)N/C(=C\c2ccc(F)cc2)C(=O)NNC(=O)c2ccc(N)cc2)cc(OC)c1OC` [4a, (Z)-N-(3-(2-(4-Aminobenzoyl)hydrazineyl)-1-(4-fluorophenyl)-3-oxoprop-1-en-2-yl)-3,4,5-trimethoxybenzamide] was tested, and the IC50 ([1]; Homo sapiens, MCF7, MTT) was 2.99 ± 0.1 µM, the IC50 [2] was 19.8 ± 0.62 µM and the IC50 [3] was 4.87 ± 0.13 µM. For the same compound, the “percentage inhibition of β-tubulin polymerization” value (β-tubulin) was 78.19%.

`COc1cc(C(=O)N/C(=C\c2ccco2)C(=O)NNC(=O)c2ccc(N)cc2)cc(OC)c1OC` [4j, (Z)-N-(3-(2-(4-Aminobenzoyl)hydrazineyl)-1-(furan-2-yl)-3-oxoprop-1-en-2-yl)-3,4,5-trimethoxybenzamide] gave an early apoptosis (MCF-7 cells [4]) of 22.07%, a late apoptosis (MCF-7 cells [4]) of 7.56% and a necrosis (MCF-7 cells [4]) of 3.19%. For the same compound, the IC50 ([1]; Homo sapiens, MCF7, MTT) was 1.83 ± 0.06 µM, the “fold more potent than the reference drug Col (MCF-7 IC50)” value ([1]; MCF-7 cells, relative to Col) was 1.9 fold and the IC50 [2] was 23.2 ± 1.06 µM. For the same compound, the “cell population at S phase” value (MCF-7 cells [5]; negative control 29.51%) was 18.83%, the “cell population at G1 phase” value (MCF-7 cells [5]; negative control 61.08%) was 46.99% and the “cell population at G2/M phase” value (MCF-7 cells [5]; untreated control 9.41%) was 34.18%. For the same compound, the “expression level of p53 compared to negative controls” value (p53) was 5.14 fold, the “expression level of caspase 9 compared to negative controls” value (caspase 9) was 9.89 fold and the “level of Bcl-2 compared to negative controls” value (Bcl-2) was 0.29 fold. For the same compound, the “expression level of Bax compared to negative controls” value (Bax) was 8.36 fold, the IC50 [3] was 2.14 ± 0.09 µM and the “percentage inhibition of β-tubulin polymerization” value (β-tubulin) was 81.51%.

With `COc1cc(C(=O)N/C(=C\c2ccc(N(C)C)cc2)C(=O)NNC(=O)c2ccc(N)cc2)cc(OC)c1OC` [4f, (Z)-N-(3-(2-(4-Aminobenzoyl)hydrazineyl)-1-(4-(dimethylamino)phenyl)-3-oxoprop-1-en-2-yl)-3,4,5-trimethoxybenzamide] the IC50 ([1]; Homo sapiens, MCF7, MTT) was 27.2 ± 0.92 µM.

`COc1ccc(/C=C(\NC(=O)c2cc(OC)c(OC)c(OC)c2)C(=O)NNC(=O)c2ccc(N)cc2)cc1OC` [4g, (Z)-N-(3-(2-(4-Aminobenzoyl)hydrazineyl)-1-(3,4-dimethoxyphenyl)-3-oxoprop-1-en-2-yl)-3,4,5-trimethoxybenzamide] showed an IC50 ([1]; Homo sapiens, MCF7, MTT) of 17.1 ± 0.58 µM.

`COc1cc(C(=O)N/C(=C\c2cc(Br)c(O)c(Br)c2)C(=O)NNC(=O)c2ccc(N)cc2)cc(OC)c1OC` [4h, (Z)-N-(3-(2-(4-Aminobenzoyl)hydrazineyl)-1-(3,5-dibromo-4-hydroxyphenyl)3-oxoprop-1-en-2-yl)-3,4,5-trimethoxybenzamide] showed an IC50 ([1]; Homo sapiens, MCF7, MTT) of 19.9 ± 0.67 µM.

For `COc1cc(C(=O)N/C(=C\c2ccc(Cl)cc2)C(=O)NNC(=O)c2ccc(N)cc2)cc(OC)c1OC` [4b, (Z)-N-(3-(2-(4-Aminobenzoyl)hydrazineyl)-1-(4-chlorophenyl)-3-oxoprop-1-en-2-yl)-3,4,5-trimethoxybenzamide], the IC50 ([1]; Homo sapiens, MCF7, MTT) was 25.3 ± 0.86 µM.

`COc1cc(C(=O)N/C(=C\c2ccc([N+](=O)[O-])cc2)C(=O)NNC(=O)c2ccc(N)cc2)cc(OC)c1OC` [4c, (Z)-N-(3-(2-(4-Aminobenzoyl)hydrazineyl)-1-(4-nitrophenyl)-3-oxoprop-1-en-2-yl)-3,4,5-trimethoxybenzamide] was tested, and the IC50 ([1]; Homo sapiens, MCF7, MTT) was over 30 µM and the IC50 ([1]; MTT) was 39.7 ± 1.34 µM.

Compound `COc1cc(/C=C(\NC(=O)c2cc(OC)c(OC)c(OC)c2)C(=O)NNC(=O)c2ccc(N)cc2)cc(OC)c1OC` [4i, (Z)-N-(3-(2-(4-Aminobenzoyl)hydrazineyl)-3-oxo-1-(3,4,5-trimethoxyphenyl)prop-1-en-2-yl)-3,4,5-trimethoxybenzamide] has an IC50 ([1]; Homo sapiens, MCF7, MTT) of 4.51 ± 0.15 µM.
